# In patent publication US6360588B1, “Materials and methods for the analysis of substances passing through a membrane” (priority 1998, dated 2002):
# Test: diffusion through polydimethylsiloxane membrane (MAPI, electrospray mass spectrometry detection)
# Format: physicochemical
# Conditions: polydimethylsiloxane membrane 0.01 to 0.05 inches thick; result in words, curves in FIGS. 8-11
# Text: In operation, once the membrane and spacer are in place and the top portion 50 and bottom plate 56 are secured, a substance under study can be placed in contact with the first side of the membrane. Carrier fluid can be flowing through volume 64 and to a detection means. As the substance diffuses through the membrane and exits the second side of the membrane, it can be carried to the detection apparatus for analysis. In this way, an accurate time dependent curve can be generated as to the amounts of the substance under study exiting the second side of the membrane. This example illustrates the results from diffusion of a variety of substances through polydimethylsiloxane membrane obtained from PILLAR SCIENTIFIC, ranging in thickness from 0.01 inches to 0.05 inches. A mass spectrometer was used as a detection apparatus with electrospray ionization utilized to ionize the sample for detection in the mass spectrometer.
row,Structure (SMILES),diffusion through the membrane (relative abundance exiting the second side as a function of time)
1,COC(=O)c1ccc(O)cc1 [methyl paraben],diffusion of methyl paraben through the polydimethylsiloxane membrane
2,Clc1cccc(Cl)c1N=C1NCCN1 [clonidine],clonidine diffusing through the membrane
3,CCCCOC(=O)c1ccc(O)cc1 [n-butyl paraben],diffusion of n-butyl paraben through the polydimethylsiloxane membrane
4,CCOC(=O)c1ccc(O)cc1 [ethyl paraben],diffusion of ethyl paraben through the polydimethylsiloxane membrane
